For 87 molecules, XC50 results are on record in ChEMBL document CHEMBL1157539, “Thousands of chemical starting points for antimalarial lead identification” (Nature, 2010).

This assay deals with Plasmodium falciparum. Briefly: GSK_TCMDC: Inhibition of Plasmodium falciparum 3D7 in whole erythrocytes, using parasite LDH activity as an index of growth. The class given is functional, organism-based. To be noted: Plasmodium falciparum, 3D7.
Molecule `Cn1c(=O)c(-c2c(Cl)cccc2Cl)cc2cnc(Nc3ccc(N4CCOCC4)cc3)nc21` yielded an XC50 of 161 nM.

The molecule `CCCc1cc2c3c(N)nc(N)nc3ccc2n1C(CC)CC` yielded an XC50 of 3.2 nM.

For the molecule `CC(C)N1CCC(N(Cc2ccc(-c3ccc(C(F)(F)F)cc3)cc2)C(=O)Cn2c(CCc3cccc(F)c3F)cc(=O)c3ccccc32)CC1`, the XC50 worked out at 850 nM.

On to `COc1ccc(NC(=O)/C=C/c2cc(F)cc(C(F)(F)F)c2)cc1OCCN(C(C)C)C(C)C`, for which the XC50 is 669 nM.

In the case of `CCCc1cc(=O)[nH]c(-n2nc(C)cc2NC(=O)C(CC)c2ccccc2)n1` (configuration not stated), the XC50 was 944 nM.

In the case of `COc1ccc(C(C(=O)NC2CCN(C[C@H](O)c3ccnc4ccc(OC)cc34)CC2)N2CCN(Cc3ccccc3)CC2)cc1` (some centres not stated), the XC50 was 149 nM.

As to `Cc1cccc2nc(-c3cccc(-c4ccc(NC(=O)Cc5c[nH]cn5)cc4)c3)[nH]c12`, the XC50 turned out to be 688 nM.

Regarding `COc1ccc(-n2ncc(C(=O)N3CCC4(C3)C(=O)N(c3ccccc3)c3ccccc34)c2C)cc1` (configuration not stated), the XC50 was found to be 932 nM.

In turn, `COc1cc(NC(=O)N2CCc3cc(OC)c(OCCN4CCCCC4)cc32)cc(C(F)(F)F)c1` came in with an XC50 of 1150 nM.

Regarding `Cc1cc(N[C@@H](CC(C)C)C(=O)NCCc2ccccc2)nc(NCc2ccccc2C)n1`, the XC50 came out at 906 nM.

Consider `CCCNCc1ccc(-c2ccc(CN(Cc3cccs3)C(=O)C3CCN(C)CC3)cc2)nc1`, for which the XC50 was 665 nM.

Turning to `CC(C)C[C@H]1c2[nH]c3ccc(Cl)cc3c2CCN1C(=O)CCc1ccccc1`, the XC50 came out at 885 nM.

For `CC1(C)N=C(N)N=C(N)N1c1cc(Cl)c(Cl)c(Cl)c1`, the XC50 worked out at 11.4 nM.

As to `CCCNCc1ccc(-c2ccc(CN(CCOC)C(=O)CCCOCc3ccccc3)cc2)nc1`, the XC50 worked out at 1160 nM.

Regarding `O=C(Nc1ccc(N2CCCN(Cc3cccc(F)c3)CC2)cc1)c1ccccc1`, the XC50 amounted to 961 nM.

For `Cc1cccc2nc(-c3cccc(-c4ccc(NC(=O)C5CC(=O)Nc6ccccc65)cc4)c3)[nH]c12` (configuration not stated), the XC50 came out at 685 nM.

On to `O=[N+]([O-])c1ccc(N2CCCN(C(=S)Nc3ccc(F)cc3Br)CC2)nc1`, for which the XC50 worked out at 302 nM.

Turning to `O=C(Nc1cccc(CN2CCCN(Cc3ccc4c(c3)OCO4)CC2)c1)c1ccc2ccccc2c1`, the XC50 was found to be 1050 nM.

The molecule `COc1ccc(-c2cncc(-c3ccc(OC)c(OC)c3)n2)cc1OC` came in with an XC50 of 777 nM.

`CC(Sc1nc(-c2ccccc2)c(-c2ccccc2)o1)C(=O)NC1CC1` (configuration not stated): the XC50 was 843 nM.

`[O-][S+]1c2ccccc2Sc2ccccc21` yielded an XC50 of 168 nM.

`COc1cc2cc(C(=O)Nc3ccccc3)c(N)nc2cc1OC` gave an XC50 of 1130 nM.

As to `COc1cccc(CCNCc2ccc(-c3cccc(CNC4CCCC4)c3)cc2)c1`, the XC50 stood at 734 nM.

Consider `O=C(O)CCCN1CCCC(=C(c2ccccc2)c2ccccc2)C1`, for which the XC50 came out at 1190 nM.

Turning to `COc1ccc(NC(=O)[C@H](Cc2ccccc2)Nc2cc(C)nc(NCCN3CCCC3)n2)cc1`, the XC50 turned out to be 1390 nM.

Molecule `COc1ccc(C(=O)NCc2ccccc2-c2ccc(C(C)(C)C)cc2)cc1O` gave an XC50 of 99.6 nM.

Turning to `O=C(Cc1ccc(-c2ccccc2)cc1)N[C@H]1CCN(Cc2ccc(OCCCN3CCCCC3)cc2)C1`, the XC50 was found to be 772 nM.

The molecule `Nc1cc(-c2cc3c(OCc4ccccc4)cccc3[nH]2)ccn1` came in with an XC50 of 1190 nM.

For `COc1ccc2nccc([C@@H](O)CN3CCC(NC(=O)c4ccc5nc(-n6cccc6)sc5c4)CC3)c2c1`, the XC50 turned out to be 1000 nM.

As for `O=C(Nc1cccc(-c2cccc(CN3CCCC3)c2)c1)c1cccc(Cl)c1`, the XC50 is 1180 nM.

Consider `COc1ccc2nccc(CCN3CC(O)C(CNCc4ccc5c(n4)NC(=O)CS5)C3)c2n1` (configuration not stated), for which the XC50 came to 1460 nM.

In the case of `COc1ccc2c(Nc3ccc(N4CCN(C)CC4)cc3)cc(C)nc2c1`, the XC50 came to 719 nM.

`COc1ccc(-c2cc3nc4c(c(NCCCn5ccnc5)n3n2)CCCC4)cc1`: the XC50 stood at 730 nM.

For the molecule `Oc1cc(Nc2ccnc3cc(-c4ccc(CN5CCCCC5)o4)ccc23)c(Cl)cc1F`, the XC50 came to 122 nM.

`Cc1cccc(CCCNC(=O)CN(c2cccc(C(F)(F)F)c2)S(=O)(=O)c2ccc(C(F)(F)F)cc2)c1`: the XC50 came out at 684 nM.

In the case of `Cc1cc(C(=O)N(Cc2ccc(-c3ccc(CNCCc4ccc(S(C)(=O)=O)cc4)cn3)cc2)C(C)CN(C)C)ccc1[N+](=O)[O-]` (configuration not stated), the XC50 was found to be 789 nM.

Regarding `CCOCc1cnc(C)nc1NCC(=O)c1c(C)[nH]c2cc(C)ccc12`, the XC50 amounted to 1210 nM.

`N=C(N)NN=CC(=O)Nc1cccc(C(F)(F)F)c1` showed an XC50 of 1000 nM.

`Cc1cccc2nc(-c3ccc(-c4ccc(NC(=O)NCc5ccc(F)cc5)cc4)cc3)[nH]c12` returned an XC50 of 1330 nM.

The molecule `O=C(Nc1ccc(C(F)(F)F)cc1)NC1CCN(c2ccnc3ccccc23)CC1` gave an XC50 of 185 nM.

`C[C@H](NC(=O)[C@H](CCCCNC(=O)OC(C)(C)C)NC(=O)OC(C)(C)c1ccc(-c2ccccc2)cc1)C(=O)OCc1ccccc1`: the XC50 came to 181 nM.

`COc1ccccc1N1CCN(C(C(=O)NCc2ccc(C)cc2)c2ccc(C)cc2)CC1` (configuration not stated) had an XC50 of 932 nM.

Consider `C=CCOC(=O)N1CCC(CNCc2cccc(-c3ccc(-c4nc5cccc(C)c5[nH]4)cc3)c2)C1` (configuration not stated), for which the XC50 was 251 nM.

Regarding `Cc1cc(=O)c(C2CCC(c3ccc(Cl)cc3)CC2)c(C)[nH]1` (configuration not stated), the XC50 came out at 743 nM.

Consider `CN1CCC(Oc2cc(CN3CC[C@H](NC(=O)c4ccc(Cl)c(Cl)c4)C3)ccc2I)C1` (some centres not stated), for which the XC50 was found to be 843 nM.

In turn, `CCN(CC)c1ccc2nc(N)nc(N)c2c1` yielded an XC50 of 73.9 nM.

Regarding `COc1ccc2c(NN=Cc3cccc(C)n3)ccnc2c1`, the XC50 is 761 nM.

In the case of `O=C(Nc1ccccc1-c1nc2ccccc2s1)C(Cl)(Cl)Cl`, the XC50 came out at 638 nM.

In turn, `NC1CCN(Cc2cccc(-c3ccc(-c4nc5ccccc5[nH]4)cc3)c2)C1` (configuration not stated) gave an XC50 of 830 nM.

Take `COc1ccc(CNCCc2cccs2)cc1-c1ccc(S(=O)(=O)NCCN2CCCC2)s1`: the XC50 amounted to 877 nM.

In turn, `CN(C(=O)/C=C/c1cc(C(F)(F)F)ccc1F)C1CCN(CCCCCNC(=O)/C=C/c2ccc(Cl)c(Cl)c2)C1` (configuration not stated) came in with an XC50 of 1090 nM.

Regarding `Nc1nc(-c2ccccn2)nc(-n2nc(-c3cccc(C(F)(F)F)c3)cc2N)n1`, the XC50 is 1040 nM.

`CC[C@H]1CN2CC[C@H]1C[C@@H]2[C@@H](OC(=O)c1ccc(Cl)cc1)c1ccnc2ccc(OC)cc12` displayed an XC50 of 922 nM.

Take `O=C(Nc1ccc(-c2nc3ccccc3[nH]2)cc1)c1cccc([N+](=O)[O-])c1`: the XC50 was 220 nM.

Regarding `Cc1ccc(O)c(-c2cc(C(=O)Nc3ccc(S(=O)(=O)N4CCCC(C)C4)cc3)[nH]n2)c1` (configuration not stated), the XC50 was 707 nM.

The molecule `O=C(N[C@@H](CC1CCCCC1)C(=O)NCCN1CCCC1)c1ccc(O)c(-c2ccc(Cl)c(Cl)c2)c1` yielded an XC50 of 312 nM.

With `COC(=O)c1ccc(CC(C)NCC(O)c2cccc(I)c2)cc1` (configuration not stated), the XC50 was determined as 1320 nM.

`C=CC[C@H](C[C@H](O)[C@H](Cc1ccccc1)NC(=O)c1ccc(-c2cccnn2)cc1)C(=O)NC1CCCCC1` displayed an XC50 of 1190 nM.

`COc1c(C2CCN(CCCCNC(=O)c3ccc(-c4ccc(C#N)cc4)c(O)c3)CC2)ccc2c1CCCC2` returned an XC50 of 199 nM.

On to `Clc1ncnc2ncn(Cc3cccc(Br)c3)c12`, for which the XC50 is 1060 nM.

In the case of `CN1CCN(c2ccnc3ccc(NC(=O)N(C)c4ccc(Cl)c(Cl)c4)cc23)CC1`, the XC50 stood at 741 nM.

In turn, `N=C(N)NC(=O)Nc1ccc(Cl)c([N+](=O)[O-])c1` registered an XC50 of 762 nM.

As to `O=C(NC1CCC(CCN2Cc3cccc(C(F)(F)F)c3C2)CC1)c1cccc(-c2cccnc2)c1` (configuration not stated), the XC50 came to 1020 nM.

Turning to `OCCNc1nc(Nc2ccc(F)cc2)nc2ccccc12`, the XC50 was 164 nM.

`COc1ccc2nccc([C@@H](O)CN3CCC(NCc4ccc5nc[nH]c(=O)c5c4)CC3)c2c1` returned an XC50 of 921 nM.

On to `CN1CCCN(Cc2ccc(-c3cccc(NC(=O)c4cccc(F)c4)c3)cc2)CC1`, for which the XC50 worked out at 980 nM.

Consider `Cc1nc2ccccc2c(O)c1[N+](=O)[O-]`, for which the XC50 came to 1110 nM.

In turn, `CC1CCN(Cc2c(O)ccc3c(CN4CCC(C)CC4)c(O)ccc23)CC1` registered an XC50 of 133 nM.

Molecule `CCN1CCc2c1cc(C(=O)N[C@@H](Cc1ccccc1)[C@H](O)CNC(C)(C)c1cccc(C(F)(F)F)c1)cc2N1CCCCS1(=O)=O` showed an XC50 of 109 nM.

`O=C(/C=C/c1ccc(Cl)c(Cl)c1)NCCCCCN1CCC(NC(=O)Nc2cc(F)cc(F)c2)CC1` came in with an XC50 of 787 nM.

On to `CCCC(CNCc1cccc(I)c1)CNc1cc(=O)c2ccccc2[nH]1` (configuration not stated), for which the XC50 came out at 471 nM.

For `CCCCCN1CCCC(CNS(=O)(=O)c2ccc(C(=O)Nc3ccc(C(F)(F)F)cc3)cc2)C1` (configuration not stated), the XC50 was determined as 916 nM.

`c1ccn2c(-c3ncnc(NCc4ccc5c(c4)CCO5)n3)cnc2c1` returned an XC50 of 1190 nM.

Regarding `CN1CCN(c2cccc(Nc3nccc(NCC(O)c4ccccc4)n3)c2)CC1` (configuration not stated), the XC50 was 718 nM.

Consider `O=C(Nc1cccc(-c2ccc(-c3nc4cc(C(F)(F)F)ccc4[nH]3)cc2)c1)c1csnn1`, for which the XC50 was 686 nM.

Regarding `c1ccc(C(OCCC2CCN(Cc3cccc4cccnc34)CC2)c2ccccc2)cc1`, the XC50 amounted to 874 nM.

On to `COc1cc2c(cc1OC)CC(NCCCCCCNCCc1ccc(Cl)cc1)CC2` (configuration not stated), for which the XC50 turned out to be 738 nM.

Consider `Cc1ccc(F)c(OC2CCN(c3ccc(C(=O)NC4CC4)cn3)CC2)c1`, for which the XC50 amounted to 823 nM.

In the case of `O=C(NC1CCN(CCN2CCC(c3c[nH]c4ccccc34)CC2)CC1)c1ccc(-c2ccc(C(F)(F)F)cc2)cc1`, the XC50 is 205 nM.

As for `CN1CCN(c2ccnc3cc4c(cc23)N(C(=O)Nc2ccc(-c3ccncc3)c3ccccc23)CC4)CC1`, the XC50 is 945 nM.

The molecule `Cc1cc(C(=O)Nc2ccc3c(c2)CCN3C2CCN(Cc3cc(F)cc(F)c3F)C2)no1` (configuration not stated) displayed an XC50 of 282 nM.

Molecule `COc1ccc2oc(=O)c(C#N)c(O)c2c1` returned an XC50 of 211 nM.

For `O=C(NCc1ccc(Cl)cc1)c1ccc(C(=O)NCC2CCCN2CC2CCCCC2)cc1` (configuration not stated), the XC50 amounted to 854 nM.

Molecule `c1ccc(-c2cc(NCc3cccc4ccccc34)c3[nH]ncc3n2)cc1` had an XC50 of 518 nM.

For the molecule `O=C(Nc1ccc(F)c(C(F)(F)F)c1)N[C@H]1CCN(CCCCCNC(=O)C2CC2c2ccc(Cl)c(Cl)c2)C1` (some centres not stated), the XC50 is 157 nM.

In the case of `Cc1cccc(N2CCN(Cc3cc(Cl)ccc3O)CC2)c1C`, the XC50 was found to be 771 nM.

The molecule `CS(=O)(=O)Nc1ccc2[nH]cc(C3CCN(CC4CCC(NC(=O)/C=C/c5ccc(Cl)c(Cl)c5)CC4)CC3)c2n1` (configuration not stated) came in with an XC50 of 780 nM.
